Entries after “also recorded” stand apart in the source; their conditions may differ.
Columns and labels:
[1] = tested on: Heliothis zea; assay: Sterol utilization and metabolism by Heliothis zea reared on artificial diet with sterol supplement; details: for Instar reached by day 20 / Growth response: sterol 200 ppm in diet; for Growth response: 20-day larvae, relative to growth on cholesterol normalized to 100%; for Utilization by H. zea / support of larval growth and development (words): test sterol as sole added dietary sterol
Protocol: Heliothis zea (corn earworm) was reared on an artificial diet treated with different sterol supplements to study the relation between sterol structure and utilization in insects. H. zea eggs were used to establish a disease-free stock colony.
The stock insects were reared using sterile procedures on a pinto bean-based diet. Moths were fed 10% sucrose. Cultures were maintained at 27±1° C., at 40±10% relative humidity on a 14:10 light-dark photoperiod and an artificial diet was used to rear the insects on different sterol supplements. The experimental diet contained agar, which is known to contain trace contamination of cholesterol, otherwise the experimental diet was sterol-free.
Sterols were solubilized in acetone. Aliquots of the solutions were added to the sterol-free diet in a mortar, the material mixed thoroughly with the diet, and the organic solvent allowed to evaporate. Sterols were supplied to the medium at 200 ppm (equivalent to 1 mg of sterol per experimental vessel containing one insect).
By day 20, H. zea larva are in the final stage of larval development (sixth instar), after which the insects may pupate. A single neonate larva was placed in an experimental culture vial and allowed to grow for 20 days. The fresh weight, length and instar stage of 20-day larva were recorded.
In some treatments, the larvae were allowed to grow for another 4 days to determine whether they could pupate properly and develop into moth forms.
These fatty alcohols may comigrate with sterols during some forms of chromatography and interfere with sterol quantitation, particularly of cholesterol. Therefore, in order to confirm the identity and amount of cholesterol in the insect an aliquot of the NSF was injected into a HPLC column and the fraction corresponding to cholesterol was examined by GC-MS.

[2] = tested on: (S)-adenosyl-L-methionine: Δ^24-sterol methyl transferase (SMT); assay: Sterol specificity (substrate methylation) of SMT enzyme from 4-day corn seedlings; type: biochemical, Zea mays (corn); details: for % Activity, relative to cycloartenol methylation: soluble SMT; for Enzyme Activity: soluble SMT from corn seedlings, BG = background
Protocol: The sterol specificity of the microsome-bound and soluble SMT enzyme from 4-day corn seedlings was determined in order to elucidate the enzymatic basis for the plant sterols identified in Example 1.

[3] = tested on: (S)-adenosyl-L-methionine: Δ^24-sterol methyl transferase (SMT); assay: Effect of substrate and transition state analog inhibitors on soluble SMT enzyme from 4-day seedlings; type: biochemical, Zea mays (corn)
[4] = Table 11, insect tissues, RP-HPLC and GC-MS
[5] = substrates marked (C1), first methyl transfer

With 24-Ethyl cholesta-5,24-dienol the “Instar reached by day 20” value ([1]; Table 11) was 3 and the Growth response ([1]; Table 11) was 10%.

With 24-Methyl cholesta-5,24-dienol the “Sterol composition (as % total sterol): cholesterol” value [1, 4] was 35%, the “Sterol composition (as % total sterol): ts” value [1, 4] was 65% and the “Instar reached by day 20” value ([1]; Table 11) was 3. It also gave a Growth response ([1]; Table 11) of 5%.

“24-methyl cholesta-5,23-dienol [24-Methylcholesta-5,23-dienol]” was tested, and the “Sterol composition (as % total sterol): cholesterol” value [1, 4] was 20%, the “Sterol composition (as % total sterol): ts” value [1, 4] was 80% and the “Instar reached by day 20” value ([1]; Table 11) was 5. The Growth response ([1]; Table 11) was 50% and the “Utilization by H. zea / support of larval growth and development (words)” value (“Utilization by H. zea / support” below) [1] was “non-utilizable; also recorded: #deformities. Insects in the nonutilizable category generally weighed less than 100 mg per insect and their length ranged from 2 to 15 mm, with 6 to 12 insects alive at day 20”.

For 24-methyl cholesta-5,25(27)-dienol, the “Utilization by H. zea / support” value [1] was “non-utilizable”.

In the case of `CC(C)=CCC[C@@H](C)[C@H]1CC[C@H]2C3=C(CC[C@]12C)[C@@]1(C)CCCCC1CC3` (stereo partly shown) [3-Desoxyzymosterol], the “% Activity, relative to cycloartenol methylation” value ([2]; (C1), first methyl transfer) is reported as 0 (C1) %.

With `C=C(CC[C@@H](C)[C@H]1CC[C@H]2C3=C(CC[C@]12C)[C@@]1(C)CC[C@H](O)[C@@H](C)C1CC3)C(C)C` (stereo partly drawn) [4α-Methylergosta-8,24(28)-dienol] the “Enzyme Activity” value ([2]; substrates marked (C2), second methyl transfer) was 1,500 dpm/min and the “% Activity, relative to cycloartenol methylation” value ([2]; (C2), second methyl transfer) was 4 (C2) %.

For `CC(C)=CCC[C@@H](C)[C@H]1CC[C@H]2C3=C(CC[C@]12C)[C@@]1(C)CC[C@H](O)[C@@H](C)[C@@H]1CC3` [4α-Methylzymosterol], the “Enzyme Activity” value [2, 5] was 10,504 dpm/min and the “% Activity, relative to cycloartenol methylation” value ([2]; (C1), first methyl transfer) was 28 (C1) %.

In the case of `CC(C)=CCCC(C)C1CC[C@@]2(C)C3=C(CCC12C)C1(C)CCC(O)CC1CC3` (stereo partly drawn) [14α-Methylzymosterol], the “Enzyme Activity” value [2, 5] is reported as 3,376 dpm/min and the “% Activity, relative to cycloartenol methylation” value ([2]; (C1), first methyl transfer) is reported as 9 (C1) %.

With `C=C(CC[C@@H](C)[C@H]1CC[C@H]2[C@@H]3CC=C4CC(O)CC[C@]4(C)[C@H]3CC[C@]12C)C(C)C` (stereo partly shown) [24(28)-Methylenecholesterol, 24(28)-methylenecholesterol] the “Instar reached by day 20” value ([1]; Table 11) was 6, the Growth response ([1]; Table 11) was 100% and the “Sterol composition (as % total sterol): cholesterol” value ([1]; in vivo) was 84%. For the same compound, the “Sterol composition (as % total sterol): ts” value ([1]; in vivo) was 16%, the Total sterol µg/insect ([1]; in vivo) was 59 µg/insect and the “Utilization by H. zea / support” value [1] was “supported larval growth to late-sixth instar”.

With `CC(CCC1NC1(C)C)[C@H]1CC[C@@]2(C)C3=C(CC[C@]12C)[C@]1(C)CC[C@H](O)C(C)(C)[C@@H]1CC3` (stereo partly drawn) [24-(R,S)-25-Epiminolanosterol, 24-(R,S)-25-epiminolanosterol] the “Type of inhibition / kinetic pattern” value ([3]; soluble corn SMT) was “non-competitive type kinetic pattern”.

In the case of `CC(C)=CCC[C@@H](C)[C@H]1CC[C@@]2(C)[C@@H]3CC[C@H]4C[C@@H](O)CC[C@@]45C[C@@]35CC[C@]12C` [24-Dehydropollinstanol], the “Enzyme Activity” value [2, 5] is reported as 8,253 dpm/min, the “% Activity, relative to cycloartenol methylation” value ([2]; (C1), first methyl transfer) is reported as 22 (C1) % and the “Instar reached by day 20” value ([1]; Table 11) is reported as 3. For the same compound, the Growth response ([1]; Table 11) was 5%, the “Sterol composition (as % total sterol): cholesterol” value ([1]; in vivo) was 14% and the “Sterol composition (as % total sterol): ts” value ([1]; in vivo) was 86%. The Total sterol µg/insect ([1]; in vivo) was 0.6 µg/insect.

In the case of `CC(C)CCC[C@@H](C)[C@H]1CC[C@@]2(C)C3=C(CC[C@]12C)[C@@]1(C)CC[C@H](O)C(C)(C)[C@@H]1CC3` [24-Dihydrolanosterol], the “Instar reached by day 20” value ([1]; Table 11) is reported as 3 and the Growth response ([1]; Table 11) is reported as 5%.

`CCC(=CC[C@@H](C)[C@H]1CC[C@H]2[C@@H]3CC=C4CC(O)CC[C@]4(C)[C@H]3CC[C@]12C)C(C)C` (stereo partly shown) [24-Ethyl cholesta-5,23-dienol] was tested, and the “Sterol composition (as % total sterol): cholesterol” value [1, 4] was 14%, the “Sterol composition (as % total sterol): ts” value [1, 4] was 86% and the “Instar reached by day 20” value ([1]; Table 11) was 3. For the same compound, the Growth response ([1]; Table 11) was 20%.

For `CC(C)=CCC[C@@H](C)[C@H]1CC[C@@]2(C)[C@@H]3CC[C@H]4[C@H](C)[C@@H](O)CC[C@@]45C[C@@]35CC[C@]12C` [31-Norcycloartenol], the “Enzyme Activity” value [2, 5] was 18,757 dpm/min and the “% Activity, relative to cycloartenol methylation” value ([2]; (C1), first methyl transfer) was 50 (C1) %.

In the case of `CC(C)C(C)CCC(C)C1CCC2C3CC=C4CC(O)CCC4(C)C3CCC12C` (stereo not shown) [Campesterol, campesterol], the “Effect on the first methyl transfer” value ([3]; soluble corn SMT) is reported as “failed to inhibit either the first or second methylation reaction” and the “Effect on the second methyl transfer” value ([3]; soluble corn SMT) is reported as “failed to inhibit either the first or second methylation reaction”.

With `CC(C)CCC[C@@H](C)[C@H]1CC[C@H]2C3=C(CC[C@]12C)[C@@]1(C)CCC(O)CC1CC3` (stereo partly shown) [Cholest-8-enol] the “% Activity, relative to cycloartenol methylation” value ([2]; (C1), first methyl transfer) was 0 (C1) %, the “Instar reached by day 20” value ([1]; Table 11) was 3 and the Growth response ([1]; Table 11) was 5%. For the same compound, the “Utilization by H. zea / support” value [1] was “inability of cholest-8-enol to support growth”.

In the case of `C=C(C)C(CC)CCC(C)C1CCC2C3CC=C4CC(O)CCC4(C)C3CCC12C` (stereo not shown) [Clereosterol], the “Instar reached by day 20” value ([1]; Table 11) is reported as 3, the Growth response ([1]; Table 11) is reported as 20% and the “Sterol composition (as % total sterol): cholesterol” value ([1]; in vivo) is reported as 20%. For the same compound, the “Sterol composition (as % total sterol): ts” value ([1]; in vivo) was 80% and the Total sterol µg/insect ([1]; in vivo) was 3 µg/insect.

In the case of `CC[C@@H](CC[C@@H](C)[C@H]1CC[C@H]2[C@@H]3CC=C4C[C@@H](O)CC[C@]4(C)[C@H]3CC[C@]12C)C(C)C` [Clionasterol], the “Instar reached by day 20” value ([1]; Table 11) is reported as 6, the Growth response ([1]; Table 11) is reported as 100% and the “Utilization by H. zea / support” value [1] is reported as “supported larval growth to late-sixth instar”.

In the case of `C=C(CC[C@@H](C)[C@H]1CC[C@@]2(C)[C@@H]3CC[C@H]4[C@H](C)[C@@H](O)CC[C@@]45C[C@@]35CC[C@]12C)C(C)C` [Cycloeucalenol], the “% Activity, relative to cycloartenol methylation” value ([2]; (C2), second methyl transfer) is reported as 0 (C2) %.

With `C=C(CC[C@@H](C)[C@H]1CC[C@H]2[C@@H]3CC=C4C[C@@H](O)CC[C@]4(C)[C@H]3CC[C@]12C)C(C)C` [Ergosta-5,24(28)-dienol] the “% Activity, relative to cycloartenol methylation” value ([2]; (C2), second methyl transfer) was 0 (C2) %.

For `C=C(CC[C@@H](C)[C@H]1CC[C@H]2C3=CCC4CC(O)CC[C@]4(C)[C@H]3CC[C@]12C)C(C)C` (stereo partly shown) [Ergosta-7,24(28)-dienol], the “% Activity, relative to cycloartenol methylation” value ([2]; (C2), second methyl transfer) was 0 (C2) %.

In the case of `C=C(CC[C@@H](C)[C@H]1CC[C@H]2C3=C(CC[C@]12C)[C@@]1(C)CC[C@H](O)CC1CC3)C(C)C` (stereo partly shown) [Ergosta-8,24(28)-dienol], the “% Activity, relative to cycloartenol methylation” value ([2]; (C2), second methyl transfer) is reported as 0 (C2) %.

For `C/C=C(\CC[C@@H](C)[C@H]1CC[C@H]2[C@@H]3CC=C4C[C@@H](O)CC[C@]4(C)[C@H]3CC[C@]12C)C(C)C` [Fucosterol], the “Sterol composition (as % total sterol): ts” value [1, 4] was 10%, the “Instar reached by day 20” value ([1]; Table 11) was 6 and the Growth response ([1]; Table 11) was 100%. The “Utilization by H. zea / support” value [1] was “supported larval growth to late-sixth instar”.

With `C/C=C(/CCC(C)C1CCC2C3CC=C4CC(O)CCC4(C)C3CCC12C)C(C)C` (stereo not shown) [Isofucosterol] the “Sterol composition (as % total sterol): ts” value [1, 4] was 8%, the “Instar reached by day 20” value ([1]; Table 11) was 6 and the Growth response ([1]; Table 11) was 100%. For the same compound, the “Utilization by H. zea / support” value [1] was “supported larval growth to late-sixth instar”.

`CC(C)=CCC[C@@H](C)[C@H]1CC[C@@]2(C)C3=C(CC[C@]12C)[C@@]1(C)CC[C@H](O)C(C)(C)[C@@H]1CC3` [Lanosterol] was tested, and the “Enzyme Activity” value [2, 5] was 24,384 dpm/min, the “% Activity, relative to cycloartenol methylation” value ([2]; (C1), first methyl transfer) was 65 (C1) % and the “Instar reached by day 20” value ([1]; Table 11) was 3. For the same compound, the Growth response ([1]; Table 11) was 5% and the “Utilization by H. zea / support” value [1] was “could not be met satisfactorily”.

In the case of `C=C(CC[C@@H](C)[C@H]1CC[C@@]2(C)C3=C(CC[C@]12C)[C@@]1(C)CC[C@H](O)[C@@H](C)[C@@H]1CC3)C(C)C` [Obtusifoliol], the “% Activity, relative to cycloartenol methylation” value ([2]; (C2), second methyl transfer) is reported as 0 (C2) %.

With `CC(C)=CCC[C@@H](C)[C@H]1CC[C@@]2(C)[C@@H]3CC[C@H]4C(C)(C)[C@@H](O)CC[C@]4(C)C3=CC[C@]12C` [Parkeol] the “Enzyme Activity” value [2, 5] was 6,002 dpm/min and the “% Activity, relative to cycloartenol methylation” value ([2]; (C1), first methyl transfer) was 16 (C1) %.

`CCC(/C=C/C(C)C1CCC2C3CC=C4CC(O)CCC4(C)C3CCC12C)C(C)C` (stereo not shown) [Stigmasterol, stigmasterol] was tested, and the “Sterol composition (as % total sterol): ts” value [1, 4] was 15%, the “Instar reached by day 20” value ([1]; Table 11) was 6 and the Growth response ([1]; Table 11) was 100%. For the same compound, the “Utilization by H. zea / support” value [1] was “supported larval growth to late-sixth instar”.

With `CC=C(CCC(C)C1CCC2C3=CCC4C(C)C(O)CCC4(C)C3CCC21C)C(C)C` (stereo not shown) [Z-24(28)-Ethylidene lophenol] the Ki ([3]; soluble SMT, 4-day seedlings, NA = no inhibition, read-out: Ki relative to the second methyl transfer) was 75 µM and the “Effect on the first methyl transfer” value ([3]; soluble corn SMT) was “not affecting the first methyl transfer”.

(S)-adenosyl-L-methionine [coenzyme] showed a Km ([2]; same for the first and second methylation reactions, read-out: Km for the coenzyme) of 5 µM.

Source: patent US20020148006A1, “Transgenic plants with modified sterol compositions” (Asgrow Seed Company, L.L.C., priority 1996, published 2002)
